Data taken from patent US11744901B2, “Phage conjugates and uses thereof” (CONSIGLIO NAZIONALE DELLE RICERCHE, priority 2017, dated 2023).

Key:
[1] = human immunotherapy, repeated KRN7000 administration; cited from earlier work
B16 melanoma cells = assay: Therapeutic vaccination against B16 tumour cells; assay type: in vivo; settings: B16 melanoma subcutaneous in C57BL/6 mice, intratumoural treatment when tumours palpable; FIG. 4
Protocol: C57BL/6 mice (n=5/group) were inoculated with 2.5×10^5 B16 melanoma cells kindly provided by Dr. Dellabona (Istituto scientifico San Raffaele, Milan, Sartorius R et al., 2011) subcutaneously in the left side. When the tumours became palpable, the mice were vaccinated with PBS, 2.5 micrograms aGalCer, 50 micrograms of fdWT bacteriophages or 50 micrograms of fdWT/aGalCer in a total volume of 80 microliters. Tumour growth was assessed three times a week using a caliber and reported as tumour volume (in mm^3) according to the formula (d^2×D)/2, where d and D are the minor diameter and the major one, respectively. The mice were sacrificed when the size of the tumour had exceeded 1,500 mm^3, in compliance with the established guidelines. Survival was recorded as the percentage of surviving animals.

iNKT cells = settings: animal model; prevents release of cytokines after recall stimulations (Sullivan and Kronenberg 2005); cited from earlier work
splenocytes = settings: stated as known, cited from earlier work

Compound	tolerability in patients [1]	clinical response in patients [1]	tumour growth (B16 melanoma cells)	anergy of iNKT cells (iNKT cells)	levels of T-cell receptor (TCR) on iNKTs (splenocytes; administered intravenously to mice)	ability of splenocytes to proliferate and produce cytokines after in vitro restimulation with aGalCer (splenocytes; mice injected with soluble aGalCer, compared to naive splenocytes)
CCCCCCCCCCCCCCCCCCCCCCCCCC(=O)N[C@@H](CO[C@H]1OC(CO)[C@H](O)C(O)C1O)[C@H](O)[C@H](O)CCCCCCCCCCCCCC (stereo partly drawn) [aGalCer, alpha-Galactosylceramide]	well tolerated					
CCCCCCCCCCCCCCCCCCCCCCCCCC(=O)N[C@@H](CO[C@H]1O[C@H](CO)[C@H](O)[C@H](O)[C@H]1O)[C@H](O)[C@H](O)CCCCCCCCCCCCCC [aGalCer, alpha-Galactosylceramide]		weak clinical response	not able to protect animals from tumour growth	induces long term cell anergy of iNKT cells	decrease	lose rapidly their ability to proliferate and produce cytokines
